{"source": "patent US12690589B2", "about": "“Herbicidal compositions comprising pyroxasulfone” (BASF SE, priority 2024, dated 2026)", "experiment_in_all_cases": "Post-emergence application in field trials, herbicidal activity (damage scale 0 to 100%)", "assay_type_in_all_cases": "in vivo", "key": {"[1]": {"tested_on": "Digitaria sanguinalis (DIGSA)", "description": "(§1) In the examples below, using the method of S. R. Colby (1967) “Calculating synergistic and antagonistic responses of herbicide combinations”, Weeds 15, p. 22ff., the value E, which is expected if the activity of the individual active compounds is only additive, was calculated:\n(§2) [formula] • wherein • X=percent activity using active herbicide A at an application rate a; • Y=percent activity using active herbicide B (e.g. pyroxasulfone) at an application rate b; • E=expected activity (in %) by A+B at application rates a+b.\n(§3) For 3-component mixtures the synergistic response was calculated as described in: Ferry, Nancy; Stanley, Bruce H.; and Armel, Gregory (2005). “DESIGN AND ANALYSIS OF BIOLOGICAL ASSAYS OF MIXTURES,” Conference on Applied Statistics in Agriculture. https://doi.org/10.4148/2475-7772.1133. According to this publication, the Colby calculation can be generalized to a third mixing partner, Z, employing the following formula: […]\n(§4) If the value found experimentally is higher than the value E calculated according to Colby, a synergistic effect is present.\n(§5) On field test sites, natural weed infestation or seeded weeds were treated post-emergence of the weeds.\n(§6) In the field trials, the weeds were treated as indicated below.\n(§7) In the following experiments, the herbicidal activity for the individual herbicidal compositions (solo and mixture applications) was assessed at the indicated days after treatment (DAT). The assessments for the damage on undesired weeds caused by the composition was carried out using a scale from 0 to 100%, compared to the untreated control plants. Here, 0 means no damage and 100 means complete destruction of the plants.\n(§8) Herbicide A-1 (342 g/l) and pyroxasulfone (500 g/l) were, together with addition of 0.25 v/v % MSO (methylated seed oil) as adjuvant, formulated in 200 l/ha water as distribution medium and sprayed with commercial flat fan nozzles.\n(§9) Herbicide A-1 (342 g/l), pyroxasulfone (500 g/l) and trifludimoxazin (500 g/l) were, together with addition of 0.25 v/v % MSO (methylated seed oil) as adjuvant, formulated in 200 l/ha water as distribution medium and sprayed with commercial flat fan nozzles.\n(§10) Herbicide A-1 (342 g/I), pyroxasulfone (500 g/l) and glyphosate-isopropylammonium (356 g/l) were, together with addition of 0.25 v/v % MSO (methylated seed oil) as adjuvant, formulated in 200 l/ha water as distribution medium and sprayed with commercial flat fan nozzles.\n(§11) Herbicide A-1 (342 g/l), pyroxasulfone (500 g/l) and glufosinate-P-ammonium (211 g/l) were, together with addition of 0.25 v/v % MSO (methylated seed oil) as adjuvant, formulated in 200 l/ha water as distribution medium and sprayed with commercial flat fan nozzles.\n(§12) Herbicide A-1 (342 g/l), pyroxasulfone (500 g/l) and 2,4-D-choline (456 g/l) were, together with addition of 0.25 v/v % MSO (methylated seed oil) as adjuvant, formulated in 200 l/ha water as distribution medium and sprayed with commercial flat fan nozzles."}, "[2]": {"tested_on": "Amaranthus retroflexus (AMARE)", "description": "as §1, §2, §3, §4, §5, §6, §7, §8, §9, §10, §11, §12"}, "[3]": {"tested_on": "Zea mays (ZEAMX)", "description": "as §1, §2, §3, §4, §5, §6, §7, §8, §9, §10, §11, §12"}, "[4]": {"tested_on": "Echinochloa crus-galli (ECHCG)", "description": "as §1, §2, §4, §5, §6, §7\nHerbicide A-1 (50 g/l) and pyroxasulfone (85% WG) were, together with addition of 0.5% MSO (methylated seed oil) as adjuvant, formulated in water as distribution medium (water volume 200 l/ha) and sprayed with commercial flat fan nozzles."}}}
{"smiles": "Cn1nc(C(F)(F)F)c(CS(=O)(=O)C2=NOC(C)(C)C2)c1OC(F)F", "note": "[B, pyroxasulfone]", "values": [{"measurement": "% Herbicidal activity", "setting": "[1]; DIGSA, growth stage 22, height 10-15 cm, B 90 g ai/ha, 7 DAT, Table 4.1", "value": 0, "unit": "%"}, {"measurement": "% Herbicidal activity", "setting": "[1]; DIGSA, growth stage 22, height 10-15 cm, B 90 g ai/ha, 21 DAT, Table 4.3", "value": 0, "unit": "%"}, {"measurement": "% Herbicidal activity", "setting": "[1]; Table 8.1, 7 DAT, stage 22, height 10-15 cm, g ai/ha A-1 18, B 70, C-12 1066", "value": 0, "unit": "%"}, {"measurement": "% Herbicidal activity", "setting": "[1]; Table 8.2, 21 DAT, stage 22, height 10-15 cm, g ai/ha A-1 18, B 70, C-12 1066", "value": 0, "unit": "%"}, {"measurement": "% Herbicidal activity", "setting": "[1]; Table 8.4, 42 DAT, stage 22, height 10-15 cm, g ai/ha A-1 18, B 70, C-12 1066", "value": 0, "unit": "%"}, {"measurement": "% Herbicidal activity", "setting": "[2]; 7 DAT, stage 31-49, height 10-12 cm, g ai/ha A-1 12.5, B 70, C-4 12.5", "value": 0, "unit": "%"}, {"measurement": "% Herbicidal activity", "setting": "[2]; 21 DAT, stage 31-49, height 10-12 cm, g ai/ha A-1 18, B 70, C-12 252", "value": 0, "unit": "%"}, {"measurement": "% Herbicidal activity", "setting": "[2]; 21 DAT, stage 31-49, height 10-12 cm, g ai/ha A-1 18, B 90, C-12 252", "value": 0, "unit": "%"}, {"measurement": "% Herbicidal activity", "setting": "[2]; 42 DAT, stage 31-49, height 10-12 cm, g ai/ha A-1 12.5, B 70, C-4 12.5", "value": 0, "unit": "%"}, {"measurement": "% Herbicidal activity", "setting": "[2]; 42 DAT, stage 31-49, height 10-12 cm, g ai/ha A-1 18, B 70", "value": 0, "unit": "%"}, {"measurement": "% Herbicidal activity", "setting": "[2]; 42 DAT, stage 31-49, height 10-12 cm, g ai/ha A-1 18, B 70, C-4 12.5", "value": 0, "unit": "%"}, {"measurement": "% Herbicidal activity", "setting": "[2]; 42 DAT, stage 31-49, height 10-12 cm, g ai/ha A-1 18, B 90, C-4 12.5", "value": 0, "unit": "%"}, {"measurement": "% Herbicidal activity", "setting": "[2]; AMARE, growth stage 31-49, height 10-12 cm, B 70 g ai/ha, 7 DAT, Table 4.1", "value": 0, "unit": "%"}, {"measurement": "% Herbicidal activity", "setting": "[2]; AMARE, growth stage 31-49, height 10-12 cm, B 70 g ai/ha, 21 DAT, Table 4.3", "value": 0, "unit": "%"}, {"measurement": "% Herbicidal activity", "setting": "[2]; AMARE, growth stage 31-49, height 10-12 cm, B 90 g ai/ha, 7 DAT, Table 4.1", "value": 0, "unit": "%"}, {"measurement": "% Herbicidal activity", "setting": "[2]; AMARE, growth stage 31-49, height 10-12 cm, B 90 g ai/ha, 21 DAT, Table 4.3", "value": 0, "unit": "%"}, {"measurement": "% Herbicidal activity", "setting": "[3]; 7 DAT, stage 15-16, height 27-33 cm, g ai/ha A-1 12.5, B 70, C-12 252", "value": 0, "unit": "%"}, {"measurement": "% Herbicidal activity", "setting": "[3]; 7 DAT, stage 15-16, height 27-33 cm, g ai/ha A-1 18, B 70, C-12 252", "value": 0, "unit": "%"}, {"measurement": "% Herbicidal activity", "setting": "[3]; 7 DAT, stage 15-16, height 27-33 cm, g ai/ha A-1 18, B 90, C-4 12.5", "value": 0, "unit": "%"}, {"measurement": "% Herbicidal activity", "setting": "[3]; 7 DAT, stage 15-16, height 27-33 cm, g ai/ha A-1 18, B 90, C-12 252", "value": 0, "unit": "%"}, {"measurement": "% Herbicidal activity", "setting": "[3]; 21 DAT, stage 15-16, height 27-33 cm, g ai/ha A-1 12.5, B 70, C-12 252", "value": 0, "unit": "%"}, {"measurement": "% Herbicidal activity", "setting": "[3]; 21 DAT, stage 15-16, height 27-33 cm, g ai/ha A-1 18, B 70, C-12 252", "value": 0, "unit": "%"}, {"measurement": "% Herbicidal activity", "setting": "[3]; 21 DAT, stage 15-16, height 27-33 cm, g ai/ha A-1 18, B 90, C-12 252", "value": 0, "unit": "%"}, {"measurement": "% Herbicidal activity", "setting": "[3]; 42 DAT, stage 15-16, height 27-33 cm, g ai/ha A-1 12.5, B 70, C-12 252", "value": 0, "unit": "%"}, {"measurement": "% Herbicidal activity", "setting": "[3]; 42 DAT, stage 15-16, height 27-33 cm, g ai/ha A-1 18, B 70, C-12 252", "value": 0, "unit": "%"}, {"measurement": "% Herbicidal activity", "setting": "[3]; 42 DAT, stage 15-16, height 27-33 cm, g ai/ha A-1 18, B 90, C-12 252", "value": 0, "unit": "%"}, {"measurement": "% Herbicidal activity", "setting": "[3]; Table 8.1, 7 DAT, stage 15-16, height 50-60 cm, g ai/ha A-1 18, B 70, C-12 1066", "value": 5, "unit": "%"}, {"measurement": "% Herbicidal activity", "setting": "[3]; Table 8.1, 7 DAT, stage 15-16, height 50-60 cm, g ai/ha A-1 18, B 90, C-12 1066", "value": 5, "unit": "%"}, {"measurement": "% Herbicidal activity", "setting": "[3]; ZEAMX, growth stage 15-16, height 40-60 cm, B 70 g ai/ha, 7 DAT, Table 4.2", "value": 5, "unit": "%"}, {"measurement": "% Herbicidal activity", "setting": "[3]; ZEAMX, growth stage 15-16, height 40-60 cm, B 70 g ai/ha, 21 DAT, Table 4.4", "value": 3, "unit": "%"}, {"measurement": "% Herbicidal activity", "setting": "[3]; ZEAMX, growth stage 15-16, height 40-60 cm, B 90 g ai/ha, 7 DAT, Table 4.2", "value": 5, "unit": "%"}, {"measurement": "% Herbicidal activity", "setting": "[4]; 7 DAT, stage 23-30, height 15-20 cm, g ai/ha A-1 12.5, B 70, C-12 252", "value": 10, "unit": "%"}, {"measurement": "% Herbicidal activity", "setting": "[4]; 21 DAT, stage 23-30, height 15-20 cm, g ai/ha A-1 12.5, B 70, C-12 252", "value": 10, "unit": "%"}, {"measurement": "% Herbicidal activity", "setting": "[4]; 28 DAT, stage 23-30, height 15-20 cm, g ai/ha A-1 12.5, B 70, C-12 252", "value": 10, "unit": "%"}, {"measurement": "% Herbicidal activity", "setting": "[4]; ECHCG, height 20-25 cm, B 120 g ai/ha, 21 DAT, Table 2.3", "value": 0, "unit": "%"}, {"measurement": "% Herbicidal activity", "setting": "[4]; Table 8.2, 21 DAT, stage 23-30, height 15-20 cm, g ai/ha A-1 18, B 70, C-12 1066", "value": 0, "unit": "%"}, {"measurement": "% Herbicidal activity", "setting": "[4]; Table 8.2, 21 DAT, stage 23-30, height 15-20 cm, g ai/ha A-1 18, B 90, C-12 1066", "value": 0, "unit": "%"}, {"measurement": "% Herbicidal activity", "setting": "[4]; Table 8.3, 28 DAT, stage 23-30, height 15-20 cm, g ai/ha A-1 18, B 70, C-12 1066", "value": 0, "unit": "%"}, {"measurement": "% Herbicidal activity", "setting": "[4]; Table 8.3, 28 DAT, stage 23-30, height 15-20 cm, g ai/ha A-1 18, B 90, C-12 1066", "value": 0, "unit": "%"}]}
